According to patent US20250154548A1, “CONTROL OF ENZYMATIC NUCLEIC ACID SYNTHESIS VIA ELECTROCHEMICAL MEANS” (The Charles Stark Draper Laboratory, Inc., priority 2023, published 2025):

What was measured:
wild-type TdT = wild-type TdT (Mus musculus, UniProt P09838); assay: TdT extension assay with DNA-intercalating dye (SYTO 13); type: biochemical; settings: metal cofactor MnCl2 pre-incubated with chelator; free nucleotides, ssDNA oligomer
Description: FIG. 14 provides data from an extension assay wherein wild-type TdT is incubated with a single-stranded DNA oligomer in the presence of free nucleotides and a DNA-intercalating dye (SYTO 13). As DNA synthesis occurs, fluorescent signal increases as more interactions of the intercalating dye with the ssDNA leads to higher fluorescent signal.

[1] = target: T1, TdT-dNTP conjugates (C7-C) (Mus musculus, UniProt P09838, C155A/C188A/C216N/C302P/C378E/C404A/C438A/D179A/D325G/D356E/D411H/D441E/D501E/E183G/E226Q/E418G/E487R/F267Y/F368W/G227E/G413Q/H416D/I229L/K247Q/K250C/K276D/L167K/L260P/L327T/L381Q/M192R/M313Q/M339K/M471L/N304T/Q166K/Q278R/Q287R/Q359K/Q371K/Q390L/R483N/S195A/S223R/S248A/S275E/S282T/S312E/T321Q/T465R/V311I/V320W/V484T); assay: Bead-based TdT extension assay; type: biochemical; settings: for inhibition of TdT extension: various chelator concentrations
T1 construct: nucleotide (dNTP) covalently tethered through a cleavable linker; That it is dCTP and sits on Cys102 is my inference from the name C7-C and from K102C
T1 sequence (P09838 149-510 with the stated changes): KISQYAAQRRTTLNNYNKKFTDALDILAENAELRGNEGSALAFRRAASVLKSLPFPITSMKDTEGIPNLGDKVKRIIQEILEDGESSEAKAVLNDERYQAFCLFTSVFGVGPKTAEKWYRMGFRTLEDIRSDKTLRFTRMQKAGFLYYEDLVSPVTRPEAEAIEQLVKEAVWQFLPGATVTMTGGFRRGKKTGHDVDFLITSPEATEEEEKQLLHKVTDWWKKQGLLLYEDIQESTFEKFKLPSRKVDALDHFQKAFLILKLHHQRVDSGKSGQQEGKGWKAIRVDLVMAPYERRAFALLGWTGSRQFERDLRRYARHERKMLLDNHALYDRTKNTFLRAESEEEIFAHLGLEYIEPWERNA
Description: Extension assay was performed for 2 minutes at 37° C.
The ability of chelators to inhibit stepwise addition of nucleotides via TdT-dNTP conjugates was tested using a bead based assay: Magnetic beads (Dynabeads MyOne streptavidin beads (C1)) were functionalized with biotinylated, double-stranded DNA (dsDNA) that contains a 3′ 30-base overhang, which serves as the seed oligo for extension. Beads were prepared in buffer (20 mM potassium phosphate, 100 mM NaCl, pH 6.5) and washed with 3 times with Superblock prior to use. TdT-dNTP conjugates were prepared at 10 μM concentrations in buffer solution (20 mM potassium phosphate buffer, 100 mM NaCl, pH 6.5). Chelators and MnCl2 solutions were prepared at appropriate ratios (in water) so that final reaction concentrations were at 125 nM in MnCl2 and incubated for 10 minutes at room temperature. Once incubation was complete, TdT-dNTP conjugates were added to the chelator/MnCl2 solutions so that TdT-dNTP conjugates were at a final concentration of 5 μM. As controls, solutions with no chelator or with TCEP (for recovery activity) were also prepared.
Once all reagents were prepared, ds-DNA functionalized beads (10 μL volume) were added to low-bind Eppendorf tubes, followed by the TdT-dNTP conjugate/chelator/MnCl2 solution (50 μL total reaction volume). The tubes were incubated at 37° C. for 2 min, then tubes were placed on ice for 1 min. The beads were washed by placing tubes on a magnetic tube rack three times with 1 mL of buffer (20 mM potassium phosphate, 100 mM NaCl, pH 6.5). To elute the ssDNA from the washed beads, the tubes were placed in the magnetic rack, and the supernatant was removed and replaced with 0.1 M NaOH (aq). After thorough mixing with a pipette and re-settling of the beads using the magnetic rack, the supernatant was transferred to a fresh low-bind tube, and 50 μL of 0.1 M HCl (aq) was added to neutralize the solution.
Sequencing sample preparation began with polyadenylation (for sequences expected to end in thymine, cytosine, or guanine) or the addition of a poly(T) tail (for sequences expected to end in adenine) to the 3′ end of each DNA sample using commercial TdT. The samples were then amplified using primers that bind to a conserved 5′ sequence and the complementary 3′ tail while incorporating Illumina sequencing priming sites into the synthesized amplicons. This step was performed using qPCR in order to achieve optimal amplification of all samples regardless of input DNA concentration. A portion of each PCR product was analyzed by gel electrophoresis to confirm the size and relative abundance of the amplicons. The products of all samples were then normalized based on relative abundance and used as template for a second PCR reaction, which incorporated Illumina flow cell adaptors and a variable index into each sample. The products of the final PCR reaction were characterized by gel electrophoresis and all indexed samples were pooled together proportionally based on relative abundance. Size selection and purification of the pooled library was performed by DNA gel extraction and the final library was analyzed by Qubit dsDNA HS assay and Tapestation D1000 screentape to determine the final molar concentration. The library was then diluted, denatured and sequenced following standard Illumina protocols.

[2] = FLPA fluorescence intensity versus bulk electrolyte pH calibration; type: physicochemical; settings: from fluorescence intensity vs pH
Excerpt: FIGS. 3A-C show how voltage-induced pH change can be visualized in real-time with a freely diffusing non-electroactive fluorescent probe. […] A large Pt counter electrode (CE, anode) surrounds a smaller Pt working electrode (WE, cathode). The two electrodes are separated by a 10 μm dielectric SiO2 region. The WE (410 μm×510 μm) contains a microarray of 300-nm diameter wells that cannot be optically resolved but appear as a smaller square region (˜250 μm×325 μm), made brighter by optical interference. The microarray is used as the region of interest (ROI) for all subsequent analysis. Images were acquired with an Excelitas X-Cite Xylis XT720S (360-720 nm LED) source, 1s exposure time, and GFP (525/50 nm) filter set.
Data points represent the average of three technical replicates, and error bars represent one standard deviation. The intensity follows a sigmoidal relationship as the fraction of deprotonated, fluorescent FLPA (inset) increases with pH (pKa˜6.5). Thus, FLPA is sensitive to an acid-OFF/neutral-ON pH switch over pH 5 to 8. The visualization strategy is amenable to other non-electroactive probes with different pKa values.

[3] = 5 μM C7-C, 0.250 mM Mn2+, 2 minutes at 37° C.

Chain of wild-type TdT (P09838 149-510): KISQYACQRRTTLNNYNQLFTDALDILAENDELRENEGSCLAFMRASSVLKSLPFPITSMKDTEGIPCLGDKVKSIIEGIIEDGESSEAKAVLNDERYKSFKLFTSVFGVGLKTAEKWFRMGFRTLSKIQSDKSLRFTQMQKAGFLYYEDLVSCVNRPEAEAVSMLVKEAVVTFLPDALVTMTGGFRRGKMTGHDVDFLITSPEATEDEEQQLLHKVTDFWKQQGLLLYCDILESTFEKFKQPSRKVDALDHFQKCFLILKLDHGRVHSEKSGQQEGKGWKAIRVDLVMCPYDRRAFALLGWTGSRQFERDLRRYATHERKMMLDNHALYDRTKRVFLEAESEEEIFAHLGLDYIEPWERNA

Row | SMILES | assayed ssDNA growth (fluorescent signal) (wild-type TdT) | fraction of extended sequences ([1]; various chelator:metal ratios, 5 μM C7-C, 0.250 mM Mn2+, 2 minutes at 37° C.) | inhibition of TdT extension [1, 3] | pKa [2] | TdT activity with chelator pre-incubated with reducing agent TCEP ([1]; TCEP reducing agent added, chelator cleaved)
1 | O=C(O)CN(CCN(CC(=O)O)CC(=O)O)CC(=O)O [EDTA, Ethylenediaminetetraacetic Acid, reference compound] | little-to-no-assayed ssDNA growth | markedly decreased | – | – | –
2 | O=C(O)CN(CC(=O)O)C(=O)OCCSSCCOC(=O)N(CC(=O)O)CC(=O)O [tetraacid 2, 3,14-bis(carboxymethyl)-4,13-dioxo-5,12-dioxa-8,9-dithia-3,14-diazahexadecanedioic acid] | no assayed ssDNA growth is observed | – | inhibition dependence on feed ratio of metal to inhibitor and choice of chelator | – | –
3 | c1ccc(SSc2ccccn2)nc1 [DTP, 2,2′-dithiopyridine, reference compound] | – | – | inhibition dependence on feed ratio of metal to inhibitor | – | –
4 | NCCOCCOCCOCCOCCOCCOCCNC(=S)Nc1ccc2c(c1)C(=O)OC21c2ccc(O)cc2Oc2cc(O)ccc21 [FLPA, fluorescein-PEG6-amine] | – | – | – | ~6.5 | –
5 | O=C(NCCc1ccc(O)c(O)c1)OCCSSCCOC(=O)NCCc1ccc(O)c(O)c1 [catechol 1, disulfanediylbis(ethane-2,1-diyl) bis((3,4-dihydroxyphenethyl)carbamate)] | no assayed ssDNA growth is observed | – | inhibition dependence on feed ratio of metal to inhibitor and choice of chelator | – | TdT activity is recovered
